Active and inactive are the calls of the source. The calls are words filed in the database; no cut-off is given here.
Experiments:
[1] = target: T1, Aryl hydrocarbon receptor (Mus musculus, UniProt P30561); assay: Activation of AhR transcription in C57BL/6 mouse naive T cells assessed as increase in CYP1A1 mRNA expression by measuring fold change at 3 uM by qRT-PCR analysis relative to control; type: cell-based; details: T-cell, read-out: FC
T1 sequence (P30561 whole entry): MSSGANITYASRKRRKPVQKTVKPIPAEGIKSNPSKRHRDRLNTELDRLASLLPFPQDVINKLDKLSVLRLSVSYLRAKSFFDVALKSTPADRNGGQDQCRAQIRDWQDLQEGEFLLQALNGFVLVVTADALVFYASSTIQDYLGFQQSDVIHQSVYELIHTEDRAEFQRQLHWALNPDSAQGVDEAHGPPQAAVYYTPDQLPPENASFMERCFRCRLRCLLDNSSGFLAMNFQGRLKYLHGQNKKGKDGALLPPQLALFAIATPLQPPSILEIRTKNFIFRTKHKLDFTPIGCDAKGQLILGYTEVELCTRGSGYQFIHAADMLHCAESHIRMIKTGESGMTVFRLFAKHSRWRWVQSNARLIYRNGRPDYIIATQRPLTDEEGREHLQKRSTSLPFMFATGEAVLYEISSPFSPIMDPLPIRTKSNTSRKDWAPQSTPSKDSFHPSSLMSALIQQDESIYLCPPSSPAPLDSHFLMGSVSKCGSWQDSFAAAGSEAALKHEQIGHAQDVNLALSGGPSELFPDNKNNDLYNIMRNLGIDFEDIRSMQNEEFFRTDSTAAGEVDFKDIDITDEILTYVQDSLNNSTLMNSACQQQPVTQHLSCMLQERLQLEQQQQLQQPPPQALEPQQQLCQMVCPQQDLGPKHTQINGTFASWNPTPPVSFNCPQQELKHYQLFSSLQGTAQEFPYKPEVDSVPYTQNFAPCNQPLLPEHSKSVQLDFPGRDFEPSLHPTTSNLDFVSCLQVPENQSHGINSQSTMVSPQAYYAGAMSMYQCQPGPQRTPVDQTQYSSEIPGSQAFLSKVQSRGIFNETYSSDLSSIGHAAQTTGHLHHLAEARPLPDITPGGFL

Mus musculus [2] = assay: Anti-colitis activity against DSS-induced ulcerative colitis C57BL/6 mouse model assessed as amelioration of mucosal architecture score by measuring ulceration in colon at 10 to 20 mg/kg, po administered once a day for 10 days by H&E staining based histopathological analysis; type: functional, organism-based; details: dose 10-20 mg/kg, time 10.0 day
[3] = MRT in Sprague-Dawley rat at 3 mg/kg, iv measured upto 1440 min by LC-MS/MS analysis; type: ADME, organism-based; details: in vivo
[4] = Half-life in Sprague-Dawley rat at 3 mg/kg, iv measured upto 1440 min by LC-MS/MS analysis; type: ADME, organism-based; details: in vivo
[5] = target: T1, Aryl hydrocarbon receptor; assay: Activation of AhR transcription in C57BL/6 mouse naive T cells assessed as increase in CYP1B1 mRNA expression at 1 to 3 uM by qRT-PCR analysis; type: cell-based; details: t cell, dose 1-3 µM
Mus musculus [6] = assay: Anti-colitis activity in DSS-induced ulcerative colitis C57BL/6 mouse model assessed as increase in CD4+CD25+Foxp3+ Treg cell ratio in mesenteric lymph nodes at 10 mg/kg, po administered once a day for 10 days by flow cytometric analysis (reference value: 4.5 %); type: functional; details: time 10 day
Mus musculus [7] = assay: In vivo activation of AhR in C57BL/6 mouse assessed as increase in CYP1A1 mRNA expression at 10 to 20 mg/kg, po administered once a day for 10 days by qRT-PCR analysis; type: functional, organism-based; details: dose 10-20 mg/kg, time 10.0 day
[8] = Oral bioavailability in Sprague-Dawley rat at 30 mg/kg measured upto 1440 min by LC-MS/MS analysis; type: ADME, organism-based; details: in vivo
Mus musculus [9] = assay: Anti-colitis activity against DSS-induced ulcerative colitis C57BL/6 mouse model assessed as increase in IL-10 mRNA level at 20 mg/kg, po administered once a day for 10 days by qRT-PCR analysis; type: functional, organism-based; details: time 10.0 day

For `COc1cc2c3c(c1)-c1ccc(O)cc1CC3NCC2` (centres undefined), the fold induction at 3 µM [1] was 4.6, the Activity (Mus musculus [2]) was “Active” and the MRT [3] was 3.07 h. The half-life [4] was 2.24 h, the Activity [5] was “Active” and the Activity (Mus musculus [6]) was 7.4%. The Activity (Mus musculus [7]) was “Active”, the bioavailability [8] was 87.4% and the Activity (Mus musculus [9]) was “Active”.

Reference: ChEMBL document CHEMBL5338769, “Discovery of Norisoboldine Analogue III11 as a Novel and Potent Aryl Hydrocarbon Receptor Agonist for the Treatment of Ulcerative Colitis” (J Med Chem, 2023)
